Reference: publication PMC5469208 (Molecular microbiology, 2016)
Converted amounts (≈) assume the structure as drawn. “Also recorded” adds a separate entry of the source. Where two headings read alike, the source gives them in different places.

Experiments:
ClpC1 [1] = settings: ref Gavrish et al., 2014 (lassomycin); Gao et al., 2014 (ecumicin); cited from earlier work
B. subtilis 168ΔclpP = experiment: microbe, parasite or virus in culture; format: cell-based; settings: Bacillus subtilis, LB medium
[2] = test system: M. bovis BCG clpP1-tetoff; experiment: microbe, parasite or virus in culture; format: cell-based, Mycobacterium bovis BCG
B. subtilis 168 = experiment: MIC determination by broth microdilution, B. subtilis 168 wt; format: cell-based; settings: Bacillus subtilis, 168, B. subtilis 168 wt, LB medium
B. subtilis 168-pX2-clpP = experiment: MIC determination, conditional strain B. subtilis 168-pX2-clpP; format: cell-based; settings: Bacillus subtilis, 168PX2CLPP, LB medium
M. tuberculosis H37Rv = experiment: MIC determination by broth microdilution, M. tuberculosis; format: cell-based; settings: Mycobacterium tuberculosis
M. bovis BCG Pasteur = experiment: microbe, parasite or virus in culture; format: cell-based, Mycobacterium bovis BCG
BS ClpP [3] = biological target: T1, BS ClpP (Bacillus subtilis, UniProt P80244); experiment: suc-LY-amc hydrolysis competition assay with BS ClpP; format: biochemical, B. subtilis; settings: 3 μM BS ClpP, 30 μM suc-LY-amc, 0–60 μM ADEP2, 0, 500 or 2500 μM Z-LL, pH 8
T1 sequence (P80244 whole entry): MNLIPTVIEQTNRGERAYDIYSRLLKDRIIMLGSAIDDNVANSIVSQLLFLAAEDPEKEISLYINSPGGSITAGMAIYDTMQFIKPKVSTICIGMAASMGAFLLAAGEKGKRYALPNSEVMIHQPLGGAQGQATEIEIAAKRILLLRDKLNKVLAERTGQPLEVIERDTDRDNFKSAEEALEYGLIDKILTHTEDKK

BS ClpP [4] = biological target: T1, BS ClpP; experiment: Z-LL stability in the presence of BS ClpP, HPLC; set-up: species or system B. subtilis; settings: 1 mM Z-LL, 3 μM BS ClpP, 3 h, 37 °C, activity buffer, Fig. S3
MTB ClpP1P2 = MTB ClpP1P2 (Mycobacterium tuberculosis, UniProt P9WPC3+P9WPC5); experiment: Z-GGL-amc peptidase activity of Z-LL pre-activated ClpP1P2; format: biochemical, M. tuberculosis; settings: 5 mM Z-LL, without ADEP
M. bovis wildtype (wt) = format: cell-based, Mycobacterium bovis BCG
ClpP2 = format: cell-based, M. bovis BCG
[5] = test system: M. bovis BCG clpP1-tetoff; format: cell-based, Mycobacterium bovis BCG
S. aureus = settings: ref Conlon et al., 2013; cited from earlier work
M. smegmatis mc^2155 = experiment: MIC determination by broth microdilution, M. smegmatis; format: cell-based, Mycobacterium smegmatis; settings: Mycolicibacterium smegmatis, MC^2155, 48 h
ClpC1 [6] = settings: binding to the ATPase ClpC1; ref Schmitt et al., 2011; cited from earlier work
[7] = M. bovis BCG wt, 25 ng ml^−1 ATc
[8] = M. bovis BCG wt, no ATc (Table 2)
[9] = Mycobacterium tuberculosis variant bovis BCG, BCG

Which “ATP-hydrolysis by ClpC1, uncoupling from protein degradation by ClpP1P2” value (ClpC1 [1]) does the source give for lassomycin here?
The value was “stimulate ATP-hydrolysis by ClpC1, while uncoupling it from protein degradation by ClpP1P2”.

Which results are given for `CN[C@@H]1[C@@H](O[C@H]2O[C@H](CO)[C@@H](N)[C@H](O)[C@H]2O)OC2C[C@@H](N)[C@@H](O[C@H]3[C@H](O)[C@@H](O)[C@H](N)C[C@@H]3N)OC2[C@@H]1O` (some centres unmarked) [apramycin]?
MIC (B. subtilis 168ΔclpP; 10% xylose): 1 µg/mL (≈ 1.85 µM); MIC (B. subtilis 168ΔclpP; no xylose): 2 µg/mL (≈ 3.71 µM); effect of ATc (clpP1P2 down-regulation) on sensitivity to the antibiotic [2]: did not occur; MIC (B. subtilis 168; 10% xylose): 2 µg/mL (≈ 3.71 µM); MIC (B. subtilis 168; no xylose): 4 µg/mL (≈ 7.41 µM); MIC (B. subtilis 168-pX2-clpP; 1% xylose): 1 µg/mL (≈ 1.85 µM); MIC (B. subtilis 168-pX2-clpP; 2% xylose): 2 µg/mL (≈ 3.71 µM); MIC (B. subtilis 168-pX2-clpP; 3% xylose): 2 µg/mL (≈ 3.71 µM); MIC (B. subtilis 168-pX2-clpP; 4% xylose): 4 µg/mL (≈ 7.41 µM); MIC (B. subtilis 168-pX2-clpP; 5% xylose): 2 µg/mL (≈ 3.71 µM); MIC (B. subtilis 168-pX2-clpP; 8% xylose): 4 µg/mL (≈ 7.41 µM); MIC (B. subtilis 168-pX2-clpP; 10% xylose): 4 µg/mL (≈ 7.41 µM); MIC (B. subtilis 168-pX2-clpP; no xylose): 2 µg/mL (≈ 3.71 µM); MIC (M. tuberculosis H37Rv): 1 µg/mL (≈ 1.85 µM); MIC (M. bovis BCG Pasteur; [7]): 1 µg/mL (≈ 1.85 µM); MIC (M. bovis BCG Pasteur; [8]): 1 µg/mL (≈ 1.85 µM); MIC (M. bovis BCG Pasteur; [9]): 1 µg/mL (≈ 1.85 µM)

For benzyloxycarbonyl-leucyl-leucine [Z-LL], which “mode of inhibition of Z-LL versus ADEP2” value (BS ClpP [3]) is on record?
The value was “non-competitive with ADEP”.

What about the “amount of Z-LL after incubation with BS ClpP” value (BS ClpP [4]) of the same compound?
The value was “not reduced after 3 hours incubation”.

And the “peptidase activity of ClpP1P2 activated by Z-LL alone” value (MTB ClpP1P2)?
The value was “able to degrade the fluorogenic peptide substrate Z-GGL-amc”.

For ecumicin, which “ATP-hydrolysis by ClpC1, uncoupling from protein degradation by ClpP1P2” value (ClpC1 [1]) is on record?
The value was “stimulate ATP-hydrolysis by ClpC1, while uncoupling it from protein degradation by ClpP1P2”.

With `Cc1c2c(c(O)c3c(O)cccc13)C(=O)[C@]1(O)C(=O)C(C(N)=O)=C(O)[C@@H](N(C)C)[C@@H]1C2` [ATc, anhydrotetracycline] as the compound, how does the “growth of M. bovis wildtype” value (M. bovis wildtype (wt); 2 ng ml^−1 ATc) read?
Its value is “not affected”.

And the “growth of M. bovis wildtype” value (M. bovis wildtype (wt); 25 ng ml^−1 ATc, MIC growth controls)?
The value was “did not impede growth of the wildtype strain”.

And the “ClpP2 / ClpP1P2 protein level” value (ClpP2)?
Its value is “considerably reduced level”.

What about the “growth of clpP1-tetoff strain” value [5] of the same compound?
Its value is “slowed down the growth rate; also recorded: the cells were dying”.

Which “synergy with ADEP against S. aureus” value (S. aureus) does the source give for `CO[C@H]1/C=C/O[C@@]2(C)Oc3c(C)c(O)c4c(O)c(c(/C=N/N5CCN(C)CC5)c(O)c4c3C2=O)NC(=O)/C(C)=C\C=C\[C@H](C)[C@H](O)[C@@H](C)[C@@H](O)[C@@H](C)[C@H](OC(C)=O)[C@@H]1C` [Rifampicin] here?
The value was “act synergistically with ADEP against S. aureus”.

Which results are given for `NNC(=O)c1ccncc1` [isoniazid]?
effect of ATc (clpP1P2 down-regulation) on sensitivity to the antibiotic [2]: did not occur; MIC [2, 9]: 0.03 µg/mL (≈ 0.219 µM); MIC (M. smegmatis mc^2155): 4 µg/mL (≈ 29.2 µM); MIC (M. bovis BCG Pasteur; M. bovis BCG Pasteur, 7H9 medium): 0.06 µg/mL (≈ 0.438 µM); MIC (M. bovis BCG Pasteur; [7]): 0.06 µg/mL (≈ 0.438 µM); MIC (M. bovis BCG Pasteur; [8]): 0.06 µg/mL (≈ 0.438 µM); MIC (M. bovis BCG Pasteur; [9]): 0.06 µg/mL (≈ 0.438 µM)

For Cyclomarin, which “hydrolysis of a model protein in M. smegmatis” value (ClpC1 [6]) is on record?
The value was “increased hydrolysis of a model protein”.
